Laboratory results reported in publication PMC12022909, “A Multicomponent Reaction-Based Platform Opens New Avenues in Aryl Hydrocarbon Receptor Modulation” (ACS Central Science, 2025).
Read-outs that look alike come from different tables or passages of the source.

Legend:
[1] = target: T1, aryl hydrocarbon receptor (AhR) (Homo sapiens, UniProt P35869); test: AhR/XRE-dependent luciferase reporter gene assay in XRE-HepG2 cells; format: cell-based; conditions: for EC50: 8 h; for AhR-dependent reporter gene activity on co-treatment with BaP: preliminary data
T1 construct: AhR-dependent reporter gene activity was determined in human HepG2 cells stably transfected with an XRE; endogenous in cells; host or cells: XRE-HepG2 (human HepG2 hepatoma cells stably carrying an XRE-luciferase plasmid)
T1 sequence (P35869 11-848): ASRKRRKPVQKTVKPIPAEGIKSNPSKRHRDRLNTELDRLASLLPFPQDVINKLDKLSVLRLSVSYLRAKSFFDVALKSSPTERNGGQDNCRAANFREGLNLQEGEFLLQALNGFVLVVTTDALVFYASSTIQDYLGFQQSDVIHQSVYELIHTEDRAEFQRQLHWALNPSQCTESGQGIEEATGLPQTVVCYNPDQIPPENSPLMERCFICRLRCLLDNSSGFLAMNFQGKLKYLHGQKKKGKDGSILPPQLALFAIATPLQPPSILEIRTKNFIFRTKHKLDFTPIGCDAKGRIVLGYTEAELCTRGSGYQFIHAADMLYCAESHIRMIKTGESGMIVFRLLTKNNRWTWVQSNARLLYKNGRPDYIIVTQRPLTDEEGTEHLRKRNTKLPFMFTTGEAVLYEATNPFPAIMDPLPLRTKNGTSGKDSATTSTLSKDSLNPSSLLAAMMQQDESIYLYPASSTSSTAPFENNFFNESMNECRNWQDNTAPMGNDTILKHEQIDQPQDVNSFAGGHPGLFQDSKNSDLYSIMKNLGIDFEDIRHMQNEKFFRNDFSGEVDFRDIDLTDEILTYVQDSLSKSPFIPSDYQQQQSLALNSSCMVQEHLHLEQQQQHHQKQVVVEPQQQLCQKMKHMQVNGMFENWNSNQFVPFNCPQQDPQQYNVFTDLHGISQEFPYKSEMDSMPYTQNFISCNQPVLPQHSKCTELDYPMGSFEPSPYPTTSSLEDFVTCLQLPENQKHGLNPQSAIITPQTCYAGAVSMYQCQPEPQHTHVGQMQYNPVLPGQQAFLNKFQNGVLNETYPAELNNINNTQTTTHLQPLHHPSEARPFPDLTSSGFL
Protocol: (f) AhR/XRE-dependent reporter gene activity results (EC50/μM).
Data are shown as mean ± SEM.
The human XRE -HepG2 reporter cell -line was a kind gift of K. Gradin and L. Poellinger (Karolinska Institute, Stockholm,
antibiotic/antimycotic solution, and 0.8 mg/ml G418. All cells were cultivated at 37 °C in a humidified atmosphere containing 5% CO 2.
AhR-dependent reporter gene activity was determined in human HepG2 cells stably transfected with an XRE -harboring luciferase plasmid (XRE-HepG2 cells). […] Luciferase activity was normalized to protein content.

[2] = Solubility in the growing media during cytotoxicity testing; format: physicochemical; conditions: concentration of 100 µM
Protocol: A phosphatidylserine exposure was used to determine cell viability. Cells were washed with PBS, pelleted, and then incubated with annexin binding buffer containing Annexin V-APC (Life Technologies) for 15 min in the dark. Then, samples were analyzed by flow cytometry using FACSCanto II and FACSDiva (BD Biosciences, Franklin Lakes, NJ, USA). Data represents the percentage of non - apoptotic cells (Ann -APC-).
The cytotoxicity of a selection of the synthesized compounds was assessed after 24 hours of treatment in two human cell lines, Jurkat and HEK293T, coming from either tumoral T-cell lymphocytes or non-tumoral embryonic kidney fibroblasts, respectively. […]
the pro-apoptotic activity was not significant below 10 µM for most compounds in both cell lines, except for 5i, 5k and 5l in both cell lines, as well as 9a in Jurkat and 5e HEK293T cells (Figure S35A-B).
Moreover, the cytotoxicity of compounds 4d, 5b, 5h, 8, 10, and 12d at a higher concentration (100 µM) was assessed in both cell lines, Jurkat and HEK293T. The cytotoxicity of compounds 5b, 5h, and 12d could not be properly tested as the compounds were not soluble […]
effects observed for compound 4d in Jurkat cells and compound 8 in HEK293T cells (Figure S35C).
Figure S35. A) Jurkat and B) HEK293T cells were treated with 1 and 10 µM doses of the corresponding compound for 24 hours. Indicated doses of fluorizoline were used as a positive control of cell death. C) Jurkat and HEK293T cells were treated with 100 µM of the corresponding compound for 24 hours. Viability was measured by flow cytometry, and it is expressed as the mean ± SEM (n = 3) of the percentage of non -apoptotic cells (Ann-APC-). * p < 0.05, ** p < 0.01 *** p < […]
(1 picture or pasted object on this page, not shown here)

HaCaT cells = test: UVA phototoxicity, caspase 3 activity in HaCaT cells; format: cell-based, human; conditions: HaCaT, 1 h, UVA 5 J/cm2
Protocol: Irradiation with UVA and caspase 3 activity measurement […]
culture media was exchanged with PBS and the cells were sham or UVA (5 J/cm2) irradiated using the BS-02 irradiation chamber (Opsytec Dr. Gröbel, Ettlingen Germany). Media was added to the cells and after 4 h incubation, caspase 3 activity was measured as described previously.[33] Protein quantification was done with the Bio-Rad DC protein assay kit (Bio-Rad Laboratories, Hercules, CA) according to the manufacturer protocol.
We compared the phototoxic potential of five of our test compounds (8, 10, 5b, 5h, 4b) as well as the FDA-approved AhR activator […]
induced caspase activity at a concentration of 100 nM (Figure S36A). At a 10-fold higher concentration (1 µM) two of the test compounds […]
Figure S36. […] For statistical analysis a two-way ANOVA (Tukey post-hoc) was performed and data are shown as mean ± SEM. (*, p ≤ 0.05). […]

[3] = XRE-HepG2 cells, unit as in the supplements, read-out: AhR/XRE-dependent luciferase activity EC50
[4] = XRE-HepG2 hepatoma cells, luciferase activity, read-out: AhR/XRE-dependent reporter gene activity (EC50)

SMILES | EC50 [1, 3] | other results
Brc1ccc2[nH]cc(-c3c4[nH]c5ccccc5c4cc4[nH]c5ccccc5c34)c2c1 [5b] | 940 nM | solubility in the growing media [2]: not soluble; UVA radiation-induced caspase activity (phototoxicity) (HaCaT cells; 100 nM): neither tapinarof nor our 6-ICZ compounds enhanced; UVA radiation-induced caspase activity (phototoxicity) (HaCaT cells; 1 µM): exhibited similar effects to FICZ
O=C1OCC(O)=C1c1c2[nH]c3ccccc3c2cc2[nH]c3ccccc3c12 [4b] | > 10000 nM | AhR-dependent reporter gene activity on co-treatment with BaP [1]: synergistic effects; UVA radiation-induced caspase activity (phototoxicity) (HaCaT cells; 100 nM): neither tapinarof nor our 6-ICZ compounds enhanced; UVA radiation-induced caspase activity (phototoxicity) (HaCaT cells; 1 µM): did not show any signs of phototoxicity
Clc1cc2c(cc1Cl)Oc1cc(Cl)c(Cl)cc1O2 [TCDD, 2,3,7,8-tetrachlorodibenzodioxin, reference compound] | 3 nM | –
Cc1cccc2c(-c3c4[nH]c5ccccc5c4cc4[nH]c5ccccc5c34)c[nH]c12 [5i] | 450 nM | –
CC1(C)CC(=O)C(c2c3[nH]c4ccccc4c3cc3[nH]c4ccccc4c23)=C(O)C1 [4a] | 2250 nM | –
Cc1[nH]c2ccccc2c1-c1c2c3ccccc3n(C)c2cc2c3ccccc3n(C)c12 [5j] | 1200 nM | reduction of activity compared to N,N′-H analog 5e ([1]; from reporter gene EC50 values): 2.3 fold
c1ccc2c(-c3c4[nH]c5ccccc5c4cc4[nH]c5ccccc5c34)c[nH]c2c1 [5c] | – | EC50 [1, 4]: 360 nM
CC(C)c1c(O)cc(/C=C/c2ccccc2)cc1O [Tapinarof, tapinarof, reference compound] | – | UVA radiation-induced caspase activity (phototoxicity) (HaCaT cells; 100 nM): neither tapinarof nor our 6-ICZ compounds enhanced; UVA radiation-induced caspase activity (phototoxicity) (HaCaT cells; 1 µM): did not show any signs of phototoxicity
CCCCCNC(=O)c1ccc2c(-c3c4[nH]c5ccccc5c4cc4[nH]c5ccccc5c34)c[nH]c2c1 [12a] | – | EC50 [1, 4]: 400 nM
c1ccc(-c2[nH]c3ccccc3c2-c2c3[nH]c4ccccc4c3cc3[nH]c4ccccc4c23)cc1 [5f] | 1170 nM | –
COc1ccc2[nH]c3c(-c4c(C)[nH]c5ccccc45)c4c(cc3c2c1)[nH]c1ccc(OC)cc14 [5l] | 630 nM | –
Cc1cccc2[nH]cc(-c3c4[nH]c5ccccc5c4cc4[nH]c5ccccc5c34)c12 [5h] | 570 nM | solubility in the growing media [2]: not soluble; UVA radiation-induced caspase activity (phototoxicity) (HaCaT cells; 100 nM): neither tapinarof nor our 6-ICZ compounds enhanced
O=c1oc2ccccc2c(O)c1-c1c2[nH]c3ccccc3c2cc2[nH]c3ccccc3c12 [4c] | 4510 nM | –
OCc1[nH]c2ccccc2c1-c1c2[nH]c3ccccc3c2cc2[nH]c3ccccc3c12 [5g] | 1820 nM | –

More lines, main results first:

EC50 [1, 3] | SMILES | other results
> 10000 nM | Cc1ccc(C#Cc2ccc3[nH]cc(-c4c5[nH]c6ccccc6c5cc5[nH]c6ccccc6c45)c3c2)cc1 [9b] | AhR-dependent reporter gene activity on co-treatment with BaP [1]: synergistic effects
> 10000 nM | O=C(O)c1ccc2c(-c3c4[nH]c5ccccc5c4cc4[nH]c5ccccc5c34)c[nH]c2c1 [5m] | –
> 10000 nM | O=C(NCCCOCCOCCOCCCNC(=O)c1ccc2c(-c3c4[nH]c5ccccc5c4cc4[nH]c5ccccc5c34)c[nH]c2c1)c1ccc2c(-c3c4[nH]c5ccccc5c4cc4[nH]c5ccccc5c34)c[nH]c2c1 [12d] | solubility in the growing media [2]: not soluble
100 nM | CS(=O)(=O)Nc1ccc(-c2ccc3[nH]cc(-c4c5[nH]c6ccccc6c5cc5[nH]c6ccccc6c45)c3c2)cc1 [9a] | –
6060 nM | O=C(NCCCCCCCCCCNC(=O)c1ccc2c(-c3c4[nH]c5ccccc5c4cc4[nH]c5ccccc5c34)c[nH]c2c1)c1ccc2c(-c3c4[nH]c5ccccc5c4cc4[nH]c5ccccc5c34)c[nH]c2c1 [12c] | –
